Experimental data as given in US7902187B2, “6-substituted 2-(benzimidazolyl)purine and purinone derivatives for immunosuppression” (Wyeth LLC, priority 2006, dated 2011).

Molecular target: T1, Jak3 (Homo sapiens, UniProt P52333)
T1 construct: A fragment encoding the catalytic domain of Jak3 (508aa to 1124aa) was ligated with GST at 5′ end; made in house; host or cells: Sf9 insect cells (baculovirus, pFastBac 1)
T1 sequence (P52333 508-1124): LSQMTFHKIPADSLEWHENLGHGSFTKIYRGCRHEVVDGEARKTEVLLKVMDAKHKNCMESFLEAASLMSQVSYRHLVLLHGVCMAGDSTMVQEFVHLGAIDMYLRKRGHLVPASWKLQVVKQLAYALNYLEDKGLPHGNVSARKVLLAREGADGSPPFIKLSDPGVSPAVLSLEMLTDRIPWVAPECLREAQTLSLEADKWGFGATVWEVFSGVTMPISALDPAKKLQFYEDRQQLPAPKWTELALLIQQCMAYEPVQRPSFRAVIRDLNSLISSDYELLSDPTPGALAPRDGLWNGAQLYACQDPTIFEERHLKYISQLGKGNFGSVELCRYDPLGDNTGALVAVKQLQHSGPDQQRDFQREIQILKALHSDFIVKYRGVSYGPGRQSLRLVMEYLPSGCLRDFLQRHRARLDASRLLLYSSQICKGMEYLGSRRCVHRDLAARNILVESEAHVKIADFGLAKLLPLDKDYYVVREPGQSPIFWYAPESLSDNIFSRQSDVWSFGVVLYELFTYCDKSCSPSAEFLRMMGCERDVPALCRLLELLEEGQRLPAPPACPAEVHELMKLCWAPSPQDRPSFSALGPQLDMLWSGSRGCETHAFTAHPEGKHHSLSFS
Assay: Jak3 Kinase Assay (HTRF)
Assay type: biochemical
Conditions: GST-Jak3 catalytic domain, 1 μM ATP, 60-min incubation; read-out: Jak3 Kinase, IC50 representation
Protocol: Human Jak3 cDNA was amplified by PCR. A fragment encoding the catalytic domain of Jak3 (508aa to 1124aa) was ligated with GST at 5′ end. This fused GST-Jak3 DNA fragment was cloned into the EcoRI site of the donor plasmid pFastBac 1 (Life Technologies #10359-016). The transformation, transposition, and transfection of insect cells (Sf9) were performed according to the manufacture's instructions. The cell lysate containing recombinant GST-Jak3 was used in the kinase assay. Anti-GST antibody (10 μg/ml, Sigma #G1417) was coated onto a 384-well plate at 4° C. overnight. Cell lysate containing GST-Jak3 (1:100 dilution) was added to the anti-GST coated plates, and GST-Jak3 was captured by immobilized anti-GST antibody. Testing compounds and substrate mix (50 mM HEPES, pH 7, 0.5 mM Na3VO4, 25 mM MgCl2, 1 mM DTT, 0.005% BSA, 1 μM ATP, and 4.5 μg/ml biotinyl poly-Glu,Ala,Tyr) were added to the plate to initiate the reaction. After a 60-min incubation, the reaction was stopped by 4 mM EDTA, and phosphorylation of biotinyl poly-Glu,Ala,Tyr was detected using 17 μg/ml Cy5-streptavidin (Amersham, #PA92005) and 2.7 μg/ml Europium-conjugated anti-phosphotyrosine antibody (PerkinElmer #AD0069) using homogeneous time-resolved fluorescence (HTRF) technology.

IC50, < 100 nM:
N#Cc1ccc2ncn(-c3nc(N4CC(F)(F)C4)c4[nH]c(=O)n([C@H]5CC[C@H](O)CC5)c4n3)c2c1, N#Cc1ccc2ncn(-c3nc(N4CCNCC4)c4[nH]c(=O)n(C5CCOCC5)c4n3)c2c1, N#Cc1ccc2ncn(-c3nc(N4CCC4)c4[nH]c(=O)n(C5CCOCC5)c4n3)c2c1, O=c1[nH]c2c(-c3cn[nH]c3)nc(-n3cnc4ccc(F)cc43)nc2n1C1CCOCC1, Cc1nc2c(-c3ccncc3)nc(-n3cnc4ccc(Cl)cc43)nc2n1C1CCOCC1, O=c1[nH]c2c(N3CCC3)nc(-n3cnc4ccc(F)cc43)nc2n1[C@@H]1CCOc2c(F)cccc21, O=c1[nH]c2c(-c3ccncc3)nc(-n3cnc4ccc(Cl)cc43)nc2n1C1CCOCC1, N#Cc1ccc2ncn(-c3nc(NCC4CC4)c4[nH]c(=O)n(C5CCOCC5)c4n3)c2c1, CN1CCCN(c2nc(-n3cnc4ccc(F)cc43)nc3c2[nH]c(=O)n3C2CCOCC2)CC1, N#Cc1ccc2ncn(-c3nc(NC4CCC4)c4[nH]c(=O)n(C5CCOCC5)c4n3)c2c1, CC(C)(C)OC(=O)N1CC(CNc2nc(-n3cnc4ccc(F)cc43)nc3c2[nH]c(=O)n3C2CCOCC2)C1, O=c1[nH]c2c(N3CCCCC3)nc(-n3cnc4ccc(F)cc43)nc2n1C1CCOCC1, CN(C)C(=O)CNc1nc(-n2cnc3ccc(F)cc32)nc2c1[nH]c(=O)n2C1CCOCC1, Cn1c(=O)n([C@H]2CC[C@H](O)CC2)c2nc(-n3cnc4ccc(F)cc43)nc(N3CCC(F)CC3)c21, Cn1c(=O)n([C@H]2CC[C@H](O)CC2)c2nc(-n3cnc4ccc(C#N)cc43)nc(-c3ccncc3)c21, O=c1[nH]c2c(N3CCC(F)CC3)nc(-n3cnc4ccc(F)cc43)nc2n1C1CCOCC1, O=c1[nH]c2c(N3CCC(F)(F)CC3)nc(-n3cnc4ccc(F)cc43)nc2n1C1CCOCC1, Cn1c(=O)n([C@H]2CC[C@H](O)CC2)c2nc(-n3cnc4ccc(Cl)cc43)nc(N3CCC(F)(F)CC3)c21, COCCCCn1c(=O)[nH]c2c(N3CC(F)(F)C3)nc(-n3cnc4ccc(C#N)cc43)nc21, COCCCNc1nc(-n2cnc3ccc(Cl)cc32)nc2c1[nH]c(=O)n2C1CCOCC1, O=c1[nH]c2c(CO)nc(-n3cnc4ccc(F)cc43)nc2n1C1CCOc2ccccc21 (stereo not shown), N#CCCCc1nc(-n2cnc3ccc(F)cc32)nc2c1[nH]c(=O)n2[C@@H]1CCOc2c(F)cccc21, Cc1ncccc1Cn1c(=O)[nH]c2c(N3CC(F)(F)C3)nc(-n3cnc4ccc(C#N)cc43)nc21, CC(C)(C)OC(=O)N1CC(Nc2nc(-n3cnc4ccc(F)cc43)nc3c2[nH]c(=O)n3C2CCOCC2)C1, O=c1[nH]c2c(-c3ccncc3)nc(-n3cnc4ccc(F)cc43)nc2n1C1CCOCC1, Cn1c(=O)n(C2CCOCC2)c2nc(-n3cnc4ccc(Cl)cc43)nc(N3CC(F)(F)C3)c21, O=c1[nH]c2c(N3CCCC(F)(F)C3)nc(-n3cnc4ccc(F)cc43)nc2n1C1CCOCC1, N#Cc1ccc2ncn(-c3nc(N4CC(F)(F)C4)c4[nH]c(=O)n(Cc5cccnc5)c4n3)c2c1, O=c1[nH]c2c(N3CC(F)(F)C(F)(F)C3)nc(-n3cnc4ccc(F)cc43)nc2n1C1CCOCC1, O=C(O)c1nc(-n2cnc3ccc(F)cc32)nc2c1[nH]c(=O)n2C1CCOc2ccccc21 (stereo not shown), NC(=O)c1nc(-n2cnc3ccc(F)cc32)nc2c1[nH]c(=O)n2C1CCOc2ccccc21 (stereo not shown)
